Reference: patent US9512111B2, “N-sulfonylated tetrahydroquinolines and related bicyclic compounds for inhibition of RORγ activity and the treatment of disease” (Lycera Corporation, priority 2010, dated 2016)
Like-named read-outs stand apart in the source and are kept apart here.

Assays:
RORγt = target: T1, RORγt (Homo sapiens, UniProt P51449); assay: RORγ Reporter Assay (GAL4-UAS luciferase reporter in HEK293 cells); type: cell-based
T1 construct: The resulting GAL4-RORγt-LBD fusion construct was placed under the control of a constitutive cytomegalovirus (CMV) promoter; expressed in transfected cells; host or cells: HEK293
T1 sequence (P51449 269-508 limits assumed): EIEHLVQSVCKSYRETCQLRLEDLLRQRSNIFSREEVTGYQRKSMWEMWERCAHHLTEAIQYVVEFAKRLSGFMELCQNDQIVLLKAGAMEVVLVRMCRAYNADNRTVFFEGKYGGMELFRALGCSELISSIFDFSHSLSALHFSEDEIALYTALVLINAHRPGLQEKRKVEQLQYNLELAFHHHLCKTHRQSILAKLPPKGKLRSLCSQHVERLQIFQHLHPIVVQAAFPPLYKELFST
Method: Inhibition of RORγt in cells was determined using a GAL4-UAS reporter system in HEK293 cells employing a luciferase readout. The RORγt DNA binding domain (DBD) was replaced with the heterologous yeast GAL4 DBD using standard recombinant DNA methods. The resulting GAL4-RORγt-LBD fusion construct was placed under the control of a constitutive cytomegalovirus (CMV) promoter by cloning it into the CMV-driven mammalian expression vector pcDNA3.1+− (Promega Corporation, Madison, Wis.).
A transcriptional reporter expression construct was used to monitor GAL4-RORγ activity, which contained five copies of the GAL4 binding site enhancer (UAS) controlling expression of a firefly luciferase reporter. This construct, pGL4.31, is commercially available from Promega Corporation, Madison Wis. Both expression constructs were transfected in bulk into HEK-293 cells using standard lipid-based transfection techniques, which allowed the GAL4 RORγ-LBD fusion protein to drive expression of the luciferase reporter. Control transfections were performed with an empty pCDN3.1+ vector.
The next day, cells were plated into 384 well plates, test compound was added, and the plates were incubated overnight. […] Promega firefly assays kits were used to stabilize the luciferase signal, and the intensity of the luciferase signal was measured using an EnVision Multilabel Plate Reader (Perkin Elmer, Waltham, Mass.).
HEK 293 cells are transfected with GAL4-NR construct (CMV:NR-LBD in pcDNA3.1neo) and the pGL4.31 GAL4-luciferase reporter construct (Promega). For a background control, use empty pcDNA3.1neo and pGL4.31. Transfection protocol is for a single T75 flask performed with Minis Trans-It 293 reagent. A 60 μL aliquot of Trans-IT reagent at room temperature is added drop wise to 1.5 mL of Optimem (Invitrogen). The resulting solution is mixed by inversion and incubated for 5-20 minutes at room temperature. This reagent mixture is added to 10 μg of DNA (5 μg of each expression vector used at a concentration of 1 mg/mL). The solution is mixed by inversion and incubated at room temperature for 20 minutes.
While the Trans-IT reagent and DNA are incubating, harvest HEK-293 cells. Remove media from flasks via aspiration and add enough TrypLE Express (stable Trypsin-like reagent, Invitrogen) to cover the bottom of the flask. The mixture is incubated at room temperature until the cells are visibly loose in the flask (approximately 2-5 minutes). Add an equal volume of complete growth media, and then pipette to achieve a single cell suspension. Spin down 1×10^7 cells and re-suspend the cells in 10 mL of complete growth media (DMEM high glucose/10% dialyzed FBS/pen/strep; Invitrogen). The cells and transfection mixture are added to one T75 flask. The contents of the T75 flax are mixed and incubated overnight at 37° C. and 5% CO2.
After 16-24 hours, cells are harvested and plated for test compound screening. Cells may be harvested as described above. Next, cells are counted and an appropriate number of cells are spun down. Then, cells are aspirated and re-suspended in complete growth media at a concentration of 0.5×10^6 cells/mL to provide a cell suspension. Plate 20 μL of the cell suspension into a white, tissue-culture treated 384 well plate. (10,000 cells/well).
A 10 mM stock solution of test compound in dimethylsulfoxide (DMSO) was diluted to 500× the final test concentration in DMSO, then diluted to 5× the final test concentration with complete growth medium to provide the Test Compound Solution. The concentration of DMSO in the Test Compound Solution was […]. A 5 μL aliquot of Test Compound Solution was added to each test well in the 384 well plate previously plated with the cell suspension. Next, plates are spun briefly and incubated overnight at 37° C. and 5% CO2.
After 16-24 hours, the luciferase assay is performed. Plates and luciferase reagent (e.g. One-Glo® or Dual Glo®; Promega, Madison, Wis.) are brought to room temperature.

RORγ-LBD = target: T2, RORγ-LBD (Homo sapiens, UniProt P51449); assay: RORγ-Ligand Binding Domain TR-FRET Assay; type: biochemical
T2 construct: HIS-tagged RORγ-LBD was recombinantly expressed in SF9 cells; made in house; host or cells: SF9 cells (baculovirus); unpurified lysate
T2 sequence (P51449 269-508 limits assumed): T1 sequence (P51449 269-508 limits assumed)
In short: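 IC50 derived from the 665 nm/615 nm emission ratio after 4 h to overnight incubation. Mixture: Sf9 lysate with His-tagged LBD (~10 nM final, not purified), SRC1-2 LXXLL biotin peptide at 450 nM, 2 nM europium anti-His antibody, 60 nM APC-streptavidin; buffer 25 mM HEPES pH 7.0, 100 mM NaCl, 0.01% Tween, 0.1% BSA.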

[1] = benzoxazines, Table 9, HEK cells
[2] = Table 7, tetrahydroquinolines, HEK293 cells, read-out: RORγ HEK IC50

| SMILES | IC50 (RORγt; [1]) | IC50 (RORγ-LBD; benzoxazines, Table 9) | IC50 (RORγt; [2]) | IC50 (RORγ-LBD; Table 8, indazoles) |
| --- | --- | --- | --- | --- |
| O=C(Nc1ccc2c(c1)N(S(=O)(=O)c1ccc(F)cc1)C[C@@H](CO)O2)c1c(F)cccc1Cl [VI-116] | < 15 µM | < 15 µM | – | – |
| Cc1cccc(Cl)c1C(=O)Nc1ccc2c(c1)N(S(=O)(=O)c1cccc(C#N)c1)C[C@H](CO)O2 [VI-43] | < 15 µM | < 15 µM | – | – |
| Cc1cccc(C)c1C(=O)Nc1ccc2c(c1)N(S(=O)(=O)c1ccc(F)cc1)C[C@H](CO)O2 [VI-49] | < 15 µM | < 15 µM | – | – |
| CC1(C)CN(S(=O)(=O)c2ccc(F)cc2)c2cc(NC(=O)c3c(Cl)cccc3Cl)ccc2O1 [VI-125] | < 15 µM | < 15 µM | – | – |
| CC(C)(C)CNCC1CN(S(=O)(=O)c2ccc(F)cc2)c2cc(NC(=O)c3c(F)cccc3Cl)ccc2O1 (stereo not shown) [VI-36] | < 15 µM | < 15 µM | – | – |
| CCOCC1CN(S(=O)(=O)c2ccc(F)c(F)c2)c2cc(NC(=O)c3c(F)cccc3Cl)ccc2O1 (stereo not shown) [VI-89] | < 15 µM | < 15 µM | – | – |
| O=C(Nc1ccc2c(c1)N(S(=O)(=O)c1ccc(F)c(F)c1)C[C@@H](CO)O2)c1c(F)cccc1Cl [VI-75] | < 15 µM | < 15 µM | – | – |
| CCOCC1CN(S(=O)(=O)c2ccc(Cl)cc2)c2cc(NC(=O)c3c(Cl)cccc3C(F)(F)F)ccc2O1 (stereo not shown) [VI-90] | < 15 µM | < 15 µM | – | – |
| COCC1CN(S(=O)(=O)c2ccc(F)cc2)c2cc(NC(=O)c3c(Cl)cccc3C(F)(F)F)ccc2O1 (stereo not shown) [VI-104] | < 15 µM | < 15 µM | – | – |
| CCOCC1CN(S(=O)(=O)c2ccc(F)c(F)c2)c2cc(NC(=O)c3c(Cl)cccc3Cl)ccc2O1 (stereo not shown) [VI-98] | < 15 µM | < 15 µM | – | – |
| N#Cc1cccc(S(=O)(=O)N2C[C@H](CN3CCCC3)Oc3ccc(NC(=O)c4c(F)cccc4Cl)cc32)c1 [Compound 21, (S)-2-Chloro-N-(4-((3-cyanophenyl)sulfonyl)-2-(pyrrolidin-1-ylmethyl)-3,4-dihydro-2H-benzo[b][1,4]oxazin-6-yl)-6-fluorobenzamide] | < 15 µM | < 15 µM | – | – |
| COCC1CN(S(=O)(=O)c2ccc(F)cc2)c2cc(NC(=O)c3c(F)cccc3Cl)ccc2O1 (stereo not shown) [VI-119] | < 15 µM | < 15 µM | – | – |
| CCOCC1CN(S(=O)(=O)c2cccc(C#N)c2)c2cc(NC(=O)c3c(F)cccc3Cl)ccc2O1 (stereo not shown) [VI-100] | < 15 µM | < 15 µM | – | – |
| COCC1CN(S(=O)(=O)c2ccc(Cl)cc2)c2cc(NC(=O)c3c(F)cccc3Cl)ccc2O1 (stereo not shown) [VI-96] | < 15 µM | < 15 µM | – | – |
| O=C(Nc1ccc2c(c1)N(S(=O)(=O)c1ccc(F)cc1)CC(CC(F)(F)F)O2)c1c(Cl)cccc1C(F)(F)F (stereo not shown) [VI-15] | < 15 µM | < 15 µM | – | – |
| O=C(Nc1cc2c(cc1F)O[C@@H](CO)CN2S(=O)(=O)c1ccc(F)cc1)c1c(Cl)cccc1C(F)(F)F [VI-41] | < 15 µM | < 15 µM | – | – |
| CC1(C)CN(S(=O)(=O)c2ccc(F)cc2)c2cc(NC(=O)c3c(F)cccc3Cl)ccc2O1 [Compound 16, 2-Chloro-6-fluoro-N-(4-((4-fluorophenyl)sulfonyl)-2,2-dimethyl-3,4-dihydro-2H-benzo[b][1,4]oxazin-6-yl)benzamide] | < 15 µM | < 15 µM | – | – |
| COCC1CN(S(=O)(=O)c2ccc(F)c(F)c2)c2cc(NC(=O)c3c(F)cccc3C(F)(F)F)ccc2O1 (stereo not shown) [VI-79] | < 15 µM | < 15 µM | – | – |
| Cc1cccc(Cl)c1C(=O)Nc1ccc2c(c1)N(S(=O)(=O)c1ccc(F)cc1)C[C@H](CO)O2 [VI-48] | < 15 µM | < 15 µM | – | – |
| CC(C)OCC1CN(S(=O)(=O)c2ccc(F)cc2)c2cc(NC(=O)c3c(F)cccc3Cl)ccc2O1 (stereo not shown) [VI-121] | < 15 µM | < 15 µM | – | – |

| SMILES | IC50 (RORγt; [1]) | IC50 (RORγ-LBD; benzoxazines, Table 9) | IC50 (RORγt; [2]) | IC50 (RORγ-LBD; Table 8, indazoles) |
| --- | --- | --- | --- | --- |
| COCC1CN(S(=O)(=O)c2ccc(F)c(F)c2)c2cc(NC(=O)c3c(Cl)cccc3Cl)ccc2O1 (stereo not shown) [VI-70] | < 15 µM | < 15 µM | – | – |
| CCOCC1CN(S(=O)(=O)c2ccc(Cl)cc2)c2cc(NC(=O)c3c(F)cccc3Cl)ccc2O1 (stereo not shown) [VI-93] | < 15 µM | < 15 µM | – | – |
| Cc1cc2c(cc1NC(=O)c1c(F)cccc1Cl)N(S(=O)(=O)c1ccc(F)cc1)CCC2 [Compound 6, 2-Chloro-6-fluoro-N-[1-(4-fluorobenzenesulfonyl)-6-methyl-1,2,3,4-tetrahydroquinolin-7-yl]benzamide] | – | – | < 15 µM | – |
| COCC1CN(S(=O)(=O)c2ccc(F)c(F)c2)c2cc(NC(=O)c3c(F)cccc3Cl)ccc2O1 (stereo not shown) [VI-80] | < 15 µM | < 15 µM | – | – |
| CCOCC1CN(S(=O)(=O)c2cccc(C#N)c2)c2cc(NC(=O)c3c(F)cccc3F)ccc2O1 (stereo not shown) [VI-102] | < 15 µM | < 15 µM | – | – |
| Cc1nn(C(F)F)cc1S(=O)(=O)N1C[C@H](C)Oc2ccc(NC(=O)c3c(F)cccc3Cl)cc21 [VI-12] | < 15 µM | < 15 µM | – | – |
| O=C(Nc1ccc2c(c1)N(S(=O)(=O)c1ccc(Cl)cc1)C[C@@H](CO)O2)c1c(F)cccc1C(F)(F)F [VI-51] | < 15 µM | < 15 µM | – | – |
| CCOCC1CN(S(=O)(=O)c2ccc(Cl)cc2)c2cc(NC(=O)c3c(F)cccc3F)ccc2O1 (stereo not shown) [VI-94] | < 15 µM | < 15 µM | – | – |
| O=C(Nc1ccc2c(c1)N(S(=O)(=O)c1ccc(Cl)cc1)C[C@@H](CO)O2)c1c(Cl)cccc1Cl [VI-52] | < 15 µM | < 15 µM | – | – |
| O=C(Nc1c(Cl)cccc1Cl)c1ccc2c(c1)N(S(=O)(=O)c1ccc(F)cc1)CCO2 [VI-126] | < 15 µM | – | – | – |
| O=C(Nc1ccc2c(c1)N(S(=O)(=O)c1ccc(Cl)cc1)CCC2)c1c(F)cccc1Cl [Compound 5, 2-Chloro-N-[1-(4-chlorobenzenesulfonyl)-1,2,3,4-tetrahydroquinolin-7-yl]-6-fluorobenzamide] | – | – | < 15 µM | – |
| O=C(Nc1ccccc1Cl)c1ccc2c(c1)N(S(=O)(=O)c1ccc(F)cc1)CCO2 [VI-128] | < 15 µM | – | – | – |
| O=C(Nc1c(F)cccc1Cl)c1ccc2c(c1)N(S(=O)(=O)c1ccc(F)cc1)CCO2 [VI-127] | < 15 µM | – | – | – |
| O=C(Nc1ccc2cnn(S(=O)(=O)c3ccccc3OC(F)(F)F)c2c1)c1c(F)cccc1Cl [Compound V-130] | – | – | – | < 15 µM |
| C[C@@H](O)[C@H]1CN(S(=O)(=O)c2ccc(F)cc2)c2cc(NC(=O)c3c(F)cccc3Cl)ccc2O1 [VI-17] | – | < 15 µM | – | – |
| N#Cc1cccc(S(=O)(=O)N2C[C@@H](CO)Oc3ccc(NC(=O)c4c(F)cccc4Cl)cc32)c1 [VI-59] | – | < 15 µM | – | – |
| N#Cc1cccc(S(=O)(=O)N2C[C@@H](CO)Oc3ccc(NC(=O)c4c(F)cccc4F)cc32)c1 [VI-60] | – | < 15 µM | – | – |
| O=C(Cc1ccc(Cl)cc1)Nc1ccc2c(c1)N(S(=O)(=O)c1ccc(F)cc1)C[C@H](CO)O2 [VI-77] | – | < 15 µM | – | – |
| O=C(Nc1ccc2c(c1)N(S(=O)(=O)c1ccc(Cl)cc1)C[C@@H](CO)O2)c1c(F)cccc1Cl [VI-54] | – | < 15 µM | – | – |
